The nature of this data set: Double-blind randomized crossover pharmacokinetic study, single oral 900 μg vitamin D3 or 25(OH)D3. Type of data set: in vivo, human. The note with it: for Cmax / Tmax / concentration at 14 days / half-life / AUC: both sexes, human, in vivo, po, single oral 900 μg, mean ± SEM; for Cmax / Tmax / half-life / AUC: 900 ug; for concentration at 14 days: 900 μg, read-out: Ctrough (trough level at day 14); for half-life: read-out: T1/2 (elimination half-life) (converted); for blood level of vitamin D3 relative to Cmax: FIG. 4a, turning point after about 2% days, single oral 900 μg vitamin D3. On the procedure: The conclusions as presented herein are based on the following experiments: In a double-blinded cross-over study single high dosages (900 μg total in two soft gel capsules containing 450 μg) of either vitamin D3 or 25(OH)D3 were administered to vitamin D-deficient volunteers including healthy controls as well as subjects with a history of malabsorption. At the outset, the BMI was determined. Blood samples were then taken at baseline and at 2, 4, 6, 8, and 12 hours as well as 1, 2, 3, 7, and 14 days after administration (FIG. 2). All the samples were analyzed for their contents in vitamin D3 per se as well as 25(OH)D3. […] In addition, peak levels were more rapidly reached with 25(OH)D3 than with vitamin D3 (see FIG. 5). The immediate increase in serum 25(OH)D3 compared to the delayed increase observed with vitamin D3 supports the concept that 25(OH)D3 is being rapidly absorbed from the small intestine into the portal circulation, whereas vitamin D3 first needs to be incorporated into the chylomicrons which are absorbed into the lymphatic system.
The pharmacokinetic parameters of orally administered 25(OH)D3 and vitamin D3 (both provided for formulation in form of visually identical soft-gel pills) were studied based on the corresponding serum concentration-time curves in healthy adults and adults with a history of intestinal malabsorption (see FIG. 2). Cinical safety has been evaluated by monitoring serum calcium, phosphorus, parathyroid hormone (PTH) and 25(OH)D levels at the beginning and end of the study. Furthermore, the distribution of supplemented 25(OH)D3 (or 25(OH)D2) into adipose tissue and the role it is playing there was also studied.
Serum levels of calcium, phosphorus, albumin, creatinine and intact parathyroid hormone (iPTH) were determined at baseline and at the end of each 14-day pharmacokinetic study (see Table 4). The pharmacokinetic parameters have been determined by evaluating the serum concentration-time curves in patients with malabsorption syndrome and healthy controls (Tables 5 and 6).
The primary outcomes of the study are the serum pharmacokinetic parameters of 25(OH)D3 and vitamin D3 after a single oral administration of 900 μg of each in a double-blind randomized crossover study.
Adult patients (18 years and older) with a history of intestinal malabsorption (n=10) and healthy adult volunteers (n=10); (of both sexes and all ethnicities) has been recruited in this randomized double-blinded crossover study. The BMI has been determined and recorded at baseline. All subjects have been prescreened for 25(OH)D levels to include subjects with 25(OH)D<30 ng/mL. The subjects have been randomized to receive two oral doses of 450 μg taken simultaneously (total 900 μg) of either vitamin D3 or 25(OH)D3. Blood samples were taken at baseline and at 2, 4, 6, 8, 12 hours and days 1, 2, 3, 7 and 14. There was a two weeks washout period before the subject received in a double blinded manner, two oral doses of 450 μg taken simultaneously (total 900 μg) of either 25(OH)D3 or vitamin D3 (depending on which one they took in the randomization) any time after the 2 week washout. Blood samples were taken at baseline and at 2, 4, 6, 8, 12 hours and days 1, 2, 3, 7 and 14 days. Serum levels of calcium, phosphorus, albumin, creatinine, and intact parathyroid hormone (iPTH) were obtained at baseline and at day 14 for each arm (or within a reasonable time if the study participant was unable to come on the exact day).
The individuals participating in the study had, after signing a consent form, been randomized by a computer randomization chart in a blinded manner to receive two oral doses of 450 μg taken simultaneously (total 900 μg) of either vitamin D3 or 25(OH)D3. Blood samples have been taken at baseline and at 2, 4, 6, 8, 12 hours and days 1, 2, 3, 7 and 14. […]

Setting [1] is: healthy participants with higher BMI (N = 5).
[2] abbreviates: healthy participants with lower BMI (N = 5).
Setting [3] is: patients with fat malabsorption (N = 6).

One compound from patent US20230248744A1, “25-HYDROXYVITAMIN D2 AND/OR D3 FOR USE IN OBESITY” (CARBOGEN AMCIS B.V., priority 2020, published 2023) can be followed below.

What is called Cmax is the highest concentration seen after dosing. What is called Tmax is the time at which the peak concentration occurs. By AUC is commonly meant the area under the concentration-time curve, a measure of exposure. Read a high AUC as more exposure.

Read-outs that look alike come from different tables or passages of the source.

In the case of `C=C1CC[C@H](O)C/C1=C/C=C1\CCC[C@]2(C)[C@@H]([C@H](C)CCCC(C)C)CC[C@@H]12` [vitamin D3, cholecalciferol], the “time at which the peak of the serum concentration is reached” value (FIG. 5, oral 900 μg) is recorded as “about 12 hours”. The “bioavailability in subjects with a history of vitamin D/fat malabsorption” value (after administration of the respective product, FIGS. 3a and b) is “reduced”. The same compound returned a Cmax (healthy participants (N = 10)) of 53.5 ± 6 ng/mL, a Cmax under setting [1] of 44.4 ± 9.3 ng/mL, a Cmax under setting [2] of 62.6 ± 5.7 ng/mL and a maximum concentration (Cmax) under setting [3] of 24.3 ± 8.4 ng/mL. Further, the Tmax is, setting by setting: (healthy participants (N = 10)) 10.4 ± 0.7 h; under setting [1], 9.6 ± 1 h; under setting [2], 11.2 ± 0.8 h; under setting [3], 11.3 ± 0.7 h. Further, the concentration at 14 days is, setting by setting: (healthy participants (N = 10)) 0.3 ± 0.3 ng/mL; under setting [1], 0 ng/mL; under setting [2], 0.6 ± 0.6 ng/mL; under setting [3], 0.1 ± 0.1 ng/mL. The half-life reads like this: (healthy participants (N = 10)) 31.4 ± 3.3 h; under setting [1], 23.8 ± 3.1 h; under setting [2], 39 ± 3.4 h; under setting [3], 28.7 ± 1.5 h. Moreover, the AUC runs as follows: (healthy participants (N = 10), serum level of the administered substance) 3260 ± 496 ng·h/mL; under setting [1], 2090 ± 547 ng·h/mL; under setting [2], 4430 ± 350 ng·h/mL; (patients with fat malabsorption (N = 6), serum level of the administered substance) 1180 ± 425 ng·h/mL. The “blood level of vitamin D3 relative to Cmax” value reads like this: (high BMI subjects) “≈ 23 % of Cmax”; (low BMI (normal) subjects) 41 % of Cmax and ≈ 41 % of Cmax.
